Test results: ChEMBL document CHEMBL2407041, “Identification of potent Yes1 kinase inhibitors using a library screening approach” (Bioorg Med Chem Lett, 2013)

Experiments:
[1] = molecular target: T1, Tyrosine-protein kinase Yes (Homo sapiens, UniProt P07947); test: Inhibition of Yes1 (unknown origin) by [gamma-33P]-ATP radiolabeled enzyme activity assay
[2] = molecular target: T1, Tyrosine-protein kinase Yes; test: Inhibition of Yes1 (unknown origin) assessed as kinase-dependent enzymatic production of ADP from ATP using coupled luminescence-based reaction by ADP-Glo kinase assay
[3] = Antiproliferative activity against human Rh30 cells after 48 hrs by CellTiter-Glo luminescent assay; details: SJRH30, 48 h
[4] = tested on: RD; test: Antiproliferative activity against human RD cells after 48 hrs by CellTiter-Glo luminescent assay

T1 sequence (P07947 whole entry): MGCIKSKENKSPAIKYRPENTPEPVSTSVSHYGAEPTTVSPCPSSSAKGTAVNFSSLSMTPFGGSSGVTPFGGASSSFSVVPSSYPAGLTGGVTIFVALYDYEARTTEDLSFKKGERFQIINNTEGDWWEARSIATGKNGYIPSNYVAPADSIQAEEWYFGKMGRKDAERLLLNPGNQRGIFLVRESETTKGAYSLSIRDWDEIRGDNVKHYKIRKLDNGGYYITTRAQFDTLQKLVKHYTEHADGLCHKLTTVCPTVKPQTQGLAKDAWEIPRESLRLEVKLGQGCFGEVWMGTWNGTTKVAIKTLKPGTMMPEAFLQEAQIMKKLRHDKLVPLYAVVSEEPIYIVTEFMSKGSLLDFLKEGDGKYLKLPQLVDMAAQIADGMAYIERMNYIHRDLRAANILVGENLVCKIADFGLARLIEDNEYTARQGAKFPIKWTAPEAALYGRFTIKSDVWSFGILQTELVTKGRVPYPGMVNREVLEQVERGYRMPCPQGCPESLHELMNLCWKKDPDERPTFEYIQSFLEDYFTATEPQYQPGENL

Row | IC50 [1] | IC50 [2] | Structure (SMILES) | IC50 [3] | IC50 [4]
1 | 240 nM | 2670 nM | CN1CCC(CNc2ccc3ncc(-c4cccc(OC(F)(F)F)c4)n3n2)CC1 [SGI-1776] |  | 
2 | 3 nM | 39.1 nM | CC(C)Oc1cc(Nc2nc(N[C@@H](C)c3ccc(F)cn3)ncc2Cl)n[nH]1 | 1800 nM | 5300 nM

Row | Structure (SMILES) | IC50 [1] | IC50 [2] | IC50 [3] | IC50 [4]
3 | c1cc(-c2cnn3cc(-c4ccc(OCCN5CCCCC5)cc4)cnc23)ccn1 [DORSOMORPHIN] | 29.8 nM | 196 nM |  | 
